According to ChEMBL document CHEMBL3045339, “Synthesis of benzoxazoles, benzothiazoles and benzimidazoles and evaluation of their antifungal, insecticidal and herbicidal activities” (1992):
≈ marks a conversion by molar mass, not a printed value.

Tests used:
Format in all cases: functional
Panonychus citri [1] = assay: Insecticidal activity against Panonychus citri at 200 ppm up to 21 days
Persicaria hydropiper [2] = assay: Herbicidal activity against Persicaria hydropiper assessed as disease control at 1000 ppm treated in soil during 15 to 20 days relative to control
Eleusine indica [3] = assay: Herbicidal activity against Eleusine indica assessed as disease control at 1000 ppm treated in soil during 15 to 20 days relative to control
Echinochloa crus-galli [4] = assay: Herbicidal activity against Echinochloa crus-galli (barnyard grass) assessed as disease control at 1000 ppm treated in soil during 15 to 20 days relative to control
Fusarium fujikuroi = assay: Antifungal activity against Fusarium fujikuroi after 7 days; design: concentration or dose not given beside the values
Xanthomonas axonopodis = assay: Antibacterial activity against Xanthomonas axonopodis after 7 days; design: concentration or dose not given beside the values
[5] = system: Pseudoperonospora cubensis; assay: Antifungal activity against Pseudoperonospora cubensis after 7 days; design: concentration or dose not given beside the values
Botrytis cinerea = assay: Antifungal activity against Botryotinia fuckeliana after 7 days; design: concentration or dose not given beside the values
Pyricularia oryzae = assay: Antifungal activity against Magnaporthe oryzae after 7 days; design: concentration or dose not given beside the values
Mycobacterium = assay: Antibacterial activity against Mycobacterium ovicum after 48 hr
Bacillus subtilis = assay: Antibacterial activity against Bacillus subtilis after 48 hr
Pseudomonas aeruginosa = assay: Antibacterial activity against Pseudomonas aeruginosa after 48 hr
Escherichia coli = assay: Antibacterial activity against Escherichia coli after 48 hr
Staphylococcus aureus = assay: Antibacterial activity against Staphylococcus aureus after 48 hr
Oryza sativa = assay: Herbicidal activity against Oryza sativa assessed as disease control at 1000 ppm treated in paddy field during 15 to 20 days relative to control
Panonychus citri [6] = assay: Insecticidal activity against Panonychus citri at 500 ppm up to 21 days
Cyperus compressus = assay: Herbicidal activity against Cyperus compressus assessed as disease control at 1000 ppm treated in paddy field during 15 to 20 days relative to control
Echinochloa crus-galli [7] = assay: Herbicidal activity against Echinochloa crus-galli (barnyard grass) assessed as disease control at 1000 ppm treated in paddy field during 15 to 20 days relative to control
Chenopodium album [8] = assay: Herbicidal activity against Chenopodium album assessed as disease control at 1000 ppm treated in foliage during 15 to 20 days relative to control
Amaranthus viridis [9] = assay: Herbicidal activity against Amaranthus viridis assessed as disease control at 1000 ppm treated in foliage during 15 to 20 days relative to control
Persicaria hydropiper [10] = assay: Herbicidal activity against Persicaria hydropiper assessed as disease control at 1000 ppm treated in foliage during 15 to 20 days relative to control
Eleusine indica [11] = assay: Herbicidal activity against Eleusine indica assessed as disease control at 1000 ppm treated in foliage during 15 to 20 days relative to control
Echinochloa crus-galli [12] = assay: Herbicidal activity against Echinochloa crus-galli (barnyard grass) assessed as disease control at 1000 ppm treated in foliage during 15 to 20 days relative to control
Amaranthus viridis [13] = assay: Herbicidal activity against Amaranthus viridis assessed as disease control at 1000 ppm treated in soil during 15 to 20 days relative to control
Chenopodium album [14] = assay: Herbicidal activity against Chenopodium album assessed as disease control at 1000 ppm treated in soil during 15 to 20 days relative to control

## OC(c1ccc(Cl)cc1)(c1ccc(Cl)cc1)C(Cl)(Cl)Cl [DICOFOL]
Panonychus citri [1]
  Activity: 98.3%

## Clc1ccc2nc(-c3ccccn3)[nH]c2c1
Persicaria hydropiper [2]
  Activity: <39%
Eleusine indica [3]
  Activity: <39%
Echinochloa crus-galli [4]
  Activity: <39%
Fusarium fujikuroi
  Activity: <39%
Xanthomonas axonopodis
  Activity: 60%
[5]
  Activity: >80%
Botrytis cinerea
  Activity: >80%
Pyricularia oryzae
  Activity: 60%
Mycobacterium
  MIC: 50 µg/mL (≈ 218 µM)
Bacillus subtilis
  MIC: 50 µg/mL (≈ 218 µM)
Pseudomonas aeruginosa
  MIC: 100 µg/mL (≈ 435 µM)
Escherichia coli
  MIC: 50 µg/mL (≈ 218 µM)
Staphylococcus aureus
  MIC: 50 µg/mL (≈ 218 µM)
Oryza sativa
  Activity: <39%
Panonychus citri [6]
  Activity: 32.5%
Cyperus compressus
  Activity: <39%
Echinochloa crus-galli [7]
  Activity: <39%
Chenopodium album [8]
  Activity: <39%
Amaranthus viridis [9]
  Activity: <39%
Persicaria hydropiper [10]
  Activity: <39%
Eleusine indica [11]
  Activity: <39%
Echinochloa crus-galli [12]
  Activity: <39%
Amaranthus viridis [13]
  Activity: <39%
Chenopodium album [14]
  Activity: <39%

## FC(F)(F)c1ccc2sc(-c3ccccn3)nc2c1
Persicaria hydropiper [2]
  Activity: <39%
Eleusine indica [3]
  Activity: <39%
Echinochloa crus-galli [4]
  Activity: <39%
Fusarium fujikuroi
  Activity: <39%
Xanthomonas axonopodis
  Activity: <39%
[5]
  Activity: <39%
Botrytis cinerea
  Activity: <39%
Pyricularia oryzae
  Activity: <39%
Oryza sativa
  Activity: <39%
Panonychus citri [6]
  Activity: 81.3%
Cyperus compressus
  Activity: >80%
Echinochloa crus-galli [7]
  Activity: >80%
Chenopodium album [8]
  Activity: >80%
Amaranthus viridis [9]
  Activity: >80%
Persicaria hydropiper [10]
  Activity: <39%
Eleusine indica [11]
  Activity: <39%
Echinochloa crus-galli [12]
  Activity: <39%
Amaranthus viridis [13]
  Activity: 60%
Chenopodium album [14]
  Activity: <39%

## c1ccc2[nH]c(-c3ccnc4ccccc34)nc2c1
Bacillus subtilis
  MIC: 100 µg/mL (≈ 408 µM)
Pseudomonas aeruginosa
  MIC: 100 µg/mL (≈ 408 µM)
Escherichia coli
  MIC: 100 µg/mL (≈ 408 µM)

## O=[N+]([O-])c1ccc2[nH]c(-c3ccccn3)nc2c1
Persicaria hydropiper [2]
  Activity: <39%
Eleusine indica [3]
  Activity: <39%
Echinochloa crus-galli [4]
  Activity: <39%
Fusarium fujikuroi
  Activity: <39%
Xanthomonas axonopodis
  Activity: 40%
[5]
  Activity: <39%
Botrytis cinerea
  Activity: <39%
Pyricularia oryzae
  Activity: 60%
Mycobacterium
  MIC: 50 µg/mL (≈ 208 µM)
Bacillus subtilis
  MIC: 50 µg/mL (≈ 208 µM)
Pseudomonas aeruginosa
  MIC: 100 µg/mL (≈ 416 µM)
Escherichia coli
  MIC: 10 µg/mL (≈ 41.6 µM)
Staphylococcus aureus
  MIC: 50 µg/mL (≈ 208 µM)
Oryza sativa
  Activity: <39%
Cyperus compressus
  Activity: <39%
Echinochloa crus-galli [7]
  Activity: <39%
Chenopodium album [8]
  Activity: <39%
Amaranthus viridis [9]
  Activity: <39%
Persicaria hydropiper [10]
  Activity: <39%
Eleusine indica [11]
  Activity: <39%
Echinochloa crus-galli [12]
  Activity: <39%
Amaranthus viridis [13]
  Activity: <39%
Chenopodium album [14]
  Activity: <39%

## Clc1cccc2nc(-c3ccccn3)[nH]c12
Persicaria hydropiper [2]
  Activity: <39%
Eleusine indica [3]
  Activity: <39%
Echinochloa crus-galli [4]
  Activity: <39%
Fusarium fujikuroi
  Activity: <39%
Xanthomonas axonopodis
  Activity: 60%
[5]
  Activity: <39%
Botrytis cinerea
  Activity: >80%
Pyricularia oryzae
  Activity: >80%
Oryza sativa
  Activity: <39%
Panonychus citri [6]
  Activity: 91.5%
Cyperus compressus
  Activity: <39%
Echinochloa crus-galli [7]
  Activity: <39%
Chenopodium album [8]
  Activity: <39%
Amaranthus viridis [9]
  Activity: <39%
Persicaria hydropiper [10]
  Activity: <39%
Eleusine indica [11]
  Activity: <39%
Echinochloa crus-galli [12]
  Activity: <39%
Amaranthus viridis [13]
  Activity: <39%
Chenopodium album [14]
  Activity: <39%
